In one data set the target is T1, MDCK-MDR1 (P-gp) (Homo sapiens, UniProt P08183).
T1 construct: host or cells: MDR1-MDCK cell monolayers
In words: MDCK-MDR1 permeability and efflux. It is filed as in vitro ADME. More on the design: Papp at 2 h / efflux ratio at 2 h: dose or concentration left out as unconfirmed. Particulars: MDCK-MDR1. On the procedure: (§1) min, with an isocratic hold for 0.5 min, before transitioning to 10% B over 0.05 min. The column was re-equilibrated (1 min) before the next sample injection. The total run time was 2.55 min, and the HPLC flow rate was 0.5 ml/min. The source temperature was set at 500 °C, and mass spectral analyses were performed using a Turbo-Ion spray source in positive ionization mode (5.0-kV spray voltage) and using multiple-reaction monitoring of transitions specific for the analytes. All data were analyzed using AB Sciex Analyst 1.5.1 software. […]
(§2) In-vitro determination of blood-brain barrier penetration potential
(§3) Blood-brain barrier penetration was determined using MDR1-MDCK cell monolayers by Absorption Systems, following their protocol. In short, compounds were incubated at […] final concentration on one side of the cell monolayer for 2 hours. Compounds concentration on either side of the monolayer was determined by LC-MS/MS and apparent permeability and efflux ratio

Another data set has as its target T2, P-gp (MDR1) (Homo sapiens, UniProt P08183).
T2 construct: host or cells: MDR1-MDCK cell monolayers
In words: MDCK-MDR1 permeability and efflux. The format is in vitro ADME. Details: Papp at 2 h / efflux ratio at 2 h: dose or concentration left out as unconfirmed. Particulars: dog; for efflux ratio at 2 h: MDCK-MDR1 efflux ratio, read-out: P-gp ER. Here is the method:
as §1, §2, §3

In a further data set the target is T3, rat M1 (Rattus norvegicus, UniProt P08482).
T3 construct: expressed in transfected cells
T3 sequence (P08482 1-460): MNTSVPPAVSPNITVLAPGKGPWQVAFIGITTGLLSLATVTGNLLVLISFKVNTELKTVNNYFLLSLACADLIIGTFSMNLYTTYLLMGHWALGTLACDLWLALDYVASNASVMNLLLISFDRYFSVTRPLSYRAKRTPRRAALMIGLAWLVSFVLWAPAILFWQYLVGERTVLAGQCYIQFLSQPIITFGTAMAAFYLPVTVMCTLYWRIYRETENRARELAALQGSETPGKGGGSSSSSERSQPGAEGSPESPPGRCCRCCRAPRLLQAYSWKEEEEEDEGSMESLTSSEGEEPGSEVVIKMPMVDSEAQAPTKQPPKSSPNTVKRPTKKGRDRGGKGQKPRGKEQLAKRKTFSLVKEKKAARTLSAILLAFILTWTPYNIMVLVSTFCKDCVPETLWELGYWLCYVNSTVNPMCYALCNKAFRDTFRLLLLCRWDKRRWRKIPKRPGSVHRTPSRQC
In words: M1 PAM calcium mobilization assay (rat). It is filed as cell-based. Particulars: for rM1 PAM AChmax (%): rat M1, % ACh max, n = 5; for EC50: rat M1, n = 5, read-out: rM1 PAM EC50. In general terms: A change in cytosolic calcium serves as a functional read-out for many receptors and channels.

Data set [1] is described as follows: predicted hepatic clearance, hepatic microsomes (human). It is filed as in vitro ADME. Particulars: human (h). On the procedure:
(§4) After a 5 min preincubation, the reaction was initiated by the addition of NADPH (1 mM). At selected time intervals (0, 3, 7, 15, 25, and 45 min), aliquots were taken and subsequently placed into a 96-well plate containing cold acetonitrile with internal standard (50 ng/mL carbamazepine). Plates were then centrifuged at 3000 rcf (4 °C) for 10 min, and the supernatant was transferred to a separate 96-well plate and diluted 1:1 with water for LC/MS/MS analysis. The in vitro half-life ( 1/2, min, Eq. 1), intrinsic clearance (CLint, mL/min/kg, Eq. 2), and subsequent predicted hepatic clearance (CLhep, mL/min/kg, Eq. 3) was determined employing the […]
(§5) where k represents the slope from linear regression analysis of the natural log percent remaining of a test compound as a function of incubation time […]
(§6) (2) CLint = in vitroT x mg microsomes x gram liver x kg body wt ascale-up factors: of 20 (human) or 45 (rat) […]
(§7) where Qh (hepatic blood flow, mL/min/kg) is 21 (human) or 70 (rat).
(§8) LC/MS/MS Bioanalysis of Samples from Plasma Protein Binding and Intrinsic Clearance […]
(§9) Samples were analyzed on a Thermo Electron TSQ Quantum Ultra triple quad mass spectrometer (San Jose, CA) via electrospray ionization (ESI) with two Themo Electron Accella pumps (San Jose, CA), and a Leap Technologies CTC PAL autosampler (Carrboro, NC). […]

Data set [2] in a line: predicted hepatic clearance, hepatic microsomes (rat). It is filed as in vitro ADME. The settings on record: rat (r). Here is the method:
as §4, §5, §6, §7, §8, §9

Data set [3] is described as follows: predicted hepatic clearance (dog). It is filed as in vitro ADME. Particulars: dog (d). On the procedure: as §4, §5, §6, §7, §8, §9
Another data set concerns rM2-5. In words: muscarinic selectivity calcium mobilization (rat M2-5). It is filed as cell-based.
The target in the next data set is CYP 1A2 (Homo sapiens, UniProt P05177). Nature of the data set: CYP450 inhibition. It is filed as in vitro ADME.
Sequence of CYP 1A2 (P05177 whole entry): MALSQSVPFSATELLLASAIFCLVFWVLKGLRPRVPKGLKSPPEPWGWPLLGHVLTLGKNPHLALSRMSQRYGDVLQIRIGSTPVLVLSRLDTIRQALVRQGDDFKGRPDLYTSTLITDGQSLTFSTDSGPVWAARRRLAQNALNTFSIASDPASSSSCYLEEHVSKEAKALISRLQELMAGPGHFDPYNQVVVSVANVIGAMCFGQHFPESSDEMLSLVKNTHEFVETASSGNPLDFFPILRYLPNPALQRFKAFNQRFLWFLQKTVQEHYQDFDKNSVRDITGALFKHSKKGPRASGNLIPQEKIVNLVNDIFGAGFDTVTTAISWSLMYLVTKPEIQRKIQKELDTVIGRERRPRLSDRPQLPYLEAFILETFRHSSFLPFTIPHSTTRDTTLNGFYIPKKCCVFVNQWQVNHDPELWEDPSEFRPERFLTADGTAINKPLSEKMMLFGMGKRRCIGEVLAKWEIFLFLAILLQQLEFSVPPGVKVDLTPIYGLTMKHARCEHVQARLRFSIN

T2 sequence (P08183 whole entry): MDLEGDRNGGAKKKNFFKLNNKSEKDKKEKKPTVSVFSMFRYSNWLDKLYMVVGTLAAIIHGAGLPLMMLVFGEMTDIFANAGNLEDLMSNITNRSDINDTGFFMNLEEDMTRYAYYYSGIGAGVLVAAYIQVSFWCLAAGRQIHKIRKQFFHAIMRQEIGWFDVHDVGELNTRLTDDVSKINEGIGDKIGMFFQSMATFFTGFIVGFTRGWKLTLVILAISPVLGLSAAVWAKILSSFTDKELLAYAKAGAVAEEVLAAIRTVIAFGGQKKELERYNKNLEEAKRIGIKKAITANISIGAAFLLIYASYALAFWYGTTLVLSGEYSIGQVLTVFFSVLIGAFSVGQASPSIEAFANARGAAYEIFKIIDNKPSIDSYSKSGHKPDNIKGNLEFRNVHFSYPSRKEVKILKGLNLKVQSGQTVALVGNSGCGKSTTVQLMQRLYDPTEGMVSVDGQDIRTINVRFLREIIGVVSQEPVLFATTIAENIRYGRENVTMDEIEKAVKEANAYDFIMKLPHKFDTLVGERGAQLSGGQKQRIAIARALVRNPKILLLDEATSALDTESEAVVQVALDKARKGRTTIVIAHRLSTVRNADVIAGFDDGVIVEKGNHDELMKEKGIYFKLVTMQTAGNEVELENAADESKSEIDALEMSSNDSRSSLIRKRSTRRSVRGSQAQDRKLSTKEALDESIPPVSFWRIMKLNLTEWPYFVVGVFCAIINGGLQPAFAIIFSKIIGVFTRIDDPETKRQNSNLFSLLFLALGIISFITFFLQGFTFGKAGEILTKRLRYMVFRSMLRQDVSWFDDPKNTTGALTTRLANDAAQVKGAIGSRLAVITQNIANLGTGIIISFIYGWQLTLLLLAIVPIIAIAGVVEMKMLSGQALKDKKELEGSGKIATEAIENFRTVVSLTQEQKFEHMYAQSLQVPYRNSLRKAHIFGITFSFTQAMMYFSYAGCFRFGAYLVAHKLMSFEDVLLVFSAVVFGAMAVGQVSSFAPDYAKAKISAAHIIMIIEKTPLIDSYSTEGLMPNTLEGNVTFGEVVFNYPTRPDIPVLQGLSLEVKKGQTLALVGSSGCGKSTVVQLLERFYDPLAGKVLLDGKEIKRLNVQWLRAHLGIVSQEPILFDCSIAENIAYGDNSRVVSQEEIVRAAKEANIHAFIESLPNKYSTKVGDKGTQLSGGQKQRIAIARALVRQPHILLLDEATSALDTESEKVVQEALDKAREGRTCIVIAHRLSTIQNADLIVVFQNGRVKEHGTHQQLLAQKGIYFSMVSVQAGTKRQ
T1 sequence (P08183 whole entry): as above

Broadly, the Papp is the rate of passage across a membrane or cell layer, normalised by area and donor concentration. What is called EC50 is the concentration that produces a half-maximal response. For orientation: IC50 means the concentration that gives 50% inhibition. With `Cn1cc2c(-c3cc(F)c(CN4Cc5ncccc5C4=O)c(F)c3)cccc2n1` [compound 1, reference compound], the apparent permeability (Papp) on MDCK-MDR1 (P-gp) worked out at 31 ×10⁻⁶ cm/s. For the same compound, the efflux ratio at 2 h at P-gp (MDR1) came out at 1.6. The “rM1 PAM AChmax (%)” value at rat M1 came to 81%. The concentration for a half-maximal effect (EC50) on rat M1 is 0.398 µM; in the data set with rM2-5, over 30 µM. Also, the figures for the “Predicted CLhep” value in data set [1], in data set [2] and in data set [3] were 1.3 mL/min/kg, 5.7 mL/min/kg and 5.5 mL/min/kg, respectively. Also, at CYP 1A2, the IC50 was 14 µM.

Consider `Cn1cc2c(-c3cc(F)c(CN4Cc5ncccc5C4=O)c(F)c3)ccc(C(C)(C)O)c2n1` [compound 7], for which the Papp at MDCK-MDR1 (P-gp) was 23.1 ×10⁻⁶ cm/s. Also, on P-gp (MDR1) (MDCK-MDR1, MDCK-MDR1), the apparent permeability (Papp) at 2 h was 23 ×10⁻⁶ cm/s. Besides, the efflux ratio at 2 h at P-gp (MDR1) is 1.97. Further, the “rM1 PAM AChmax (%)” value on rat M1 is reported as 94%. In addition, the 50% effective concentration (EC50) on rat M1 was 0.078 µM; in the data set on rM2-5, over 30 µM. Moreover, the figures for the “Predicted CLhep” value in data set [1], in data set [2] and in data set [3] were 12.8 mL/min/kg, 35.5 mL/min/kg and 8.0 mL/min/kg, respectively. This compound registered an IC50 against CYP 1A2 of over 30 µM.

Source of the values: publication PMC12715762, “Discovery of VU6052254: A Novel, Potent M1 Positive Allosteric Modulator” (ACS Chemical Neuroscience, 2025).
